The target of the assay is T1, Human Recombinant Matriptase 2 (Homo sapiens, UniProt Q8IU80).
T1 construct: purchased Enzo Life Sciences ALX-201-752-1
T1 sequence (Q8IU80 1-811): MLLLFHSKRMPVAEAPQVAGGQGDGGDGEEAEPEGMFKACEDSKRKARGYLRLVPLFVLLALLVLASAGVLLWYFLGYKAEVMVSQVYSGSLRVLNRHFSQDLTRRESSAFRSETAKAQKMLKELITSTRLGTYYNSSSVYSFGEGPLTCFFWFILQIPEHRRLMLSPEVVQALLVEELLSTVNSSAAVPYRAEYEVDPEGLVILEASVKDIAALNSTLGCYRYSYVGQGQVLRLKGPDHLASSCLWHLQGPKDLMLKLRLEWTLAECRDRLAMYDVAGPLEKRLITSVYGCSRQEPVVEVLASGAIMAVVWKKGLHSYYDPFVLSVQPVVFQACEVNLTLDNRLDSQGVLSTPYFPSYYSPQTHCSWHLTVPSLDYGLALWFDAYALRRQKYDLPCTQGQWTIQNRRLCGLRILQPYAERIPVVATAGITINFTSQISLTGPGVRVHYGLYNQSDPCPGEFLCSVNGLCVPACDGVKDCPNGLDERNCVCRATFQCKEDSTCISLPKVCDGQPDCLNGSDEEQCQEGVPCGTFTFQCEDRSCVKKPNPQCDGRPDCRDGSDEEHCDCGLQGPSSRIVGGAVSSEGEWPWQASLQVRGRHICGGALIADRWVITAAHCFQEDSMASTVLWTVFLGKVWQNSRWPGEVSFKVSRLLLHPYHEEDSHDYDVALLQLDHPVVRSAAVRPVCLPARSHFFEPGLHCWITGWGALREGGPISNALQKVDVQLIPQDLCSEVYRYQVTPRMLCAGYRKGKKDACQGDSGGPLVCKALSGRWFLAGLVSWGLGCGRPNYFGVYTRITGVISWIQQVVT
In words: Matriptase 2 fluorescence-based inhibition assay (Boc-Gln-Ala-Arg-AMC substrate). The format is biochemical. The note with it: Ki derived from measured IC50 using Cheng-Prusoff equation; 30 min preincubation, 100 μM substrate, 25° C., pH 7.5; read-out: Mat-2 Ki. Here is the method: Test compounds were evaluated for their potential to inhibit Human Recombinant Matriptase 2 (in-house and commercial protein from Enzo Life Sciences—cat log—ALX-201-752-1) using fluorescence-based assay. The concentration of Recombinant Matriptase 2 and the substrate used in the assay were: 7 nM (commercial) and 15 nM (In-house Matriptase 2) and 100 μM (Boc-Gln-Ala-Arg-7-amido-4-methyl coumarin hydrobromide—Cat log: B4153-Sigma and I-1550 from Bachem) respectively. The assay buffer used comprised 50 mM TRIS pH 7.5, 150 mM NaCl, 0.01% gelatin (G1393 Sigma). The assay was performed by using 384 well black flat bottom plate from Grenier (Cat log: 781076) at 25° C. The enzyme and the test compound were preincubated for 30 mins, and the plate was read at wavelength Ex: 360/Em:480 nm60 mins after substrate addition. The final assay volume of was 20 μl. Stock solution of compounds were initially prepared in DMSO, which were appropriately diluted for screening to determine IC50 determination (final DMSO conc in the assay was 1%). All the measurements were carried out using the Spectramax M5, Molecular devices. The test compounds were screened at 1 and 10 μM concentrations and IC50 was determined for the interested compounds.
Ki is the binding affinity of an inhibitor. Mat-2 Ki as described herein is the binding affinity of an inhibitor such as a compound as described and provided herein to Mat-2. Mat-2 Ki values are derived from the measured IC50. To determine IC50 values, dose-response curves were generated by plotting percentage inhibition as a function of inhibitor concentration and the data was fitted to a sigmoidal non-linear regression equation (variable slope) using Graph Pad Prism software V7. Mat-2 Ki values as described herein were derived from the IC50 using the Cheng-Prusoff equation, which is understood and appreciated by one the skill in the art. The Mat-2 Ki values of tested compounds as described herein are shown in Table A. Accordingly, the compounds can be used to inhibit matriptase 2 and treat diseases and conditions associated with matriptase 2, such as those described herein.

This note sets out measurements from US20240317801A1, “PEPTIDOMIMETIC MATRIPTASE 2 INHIBITORS AND USES THEREOF” (Disc Medicine, Inc., priority 2020, published 2024).

A word on the Ki: it is a measure of affinity in units of concentration, obtained from inhibition or displacement.

SMILES strings stand for the structures. A value given as a limit tells only on which side of the number the result lay.

Take `CO[C@H](C)[C@H](NC(=O)C(Cc1cscn1)NC(=O)OCc1ccccc1)C(=O)NC(Cc1ccnc(N)c1)C(=O)C(=O)NC(C)(C)C` (stereo partly drawn): the Ki was no more than 0.1 µM.

For `CCNC(=O)C(=O)C(CCCNC(=N)N)NC(=O)[C@@H](NC(=O)[C@H](CCc1ccccc1)NC(=O)CCc1ccccc1)[C@@H](C)O` (stereo partly drawn), the inhibition constant Ki was no more than 0.1 µM.

In the case of `C[C@@H](O)[C@H](NC(=O)[C@H](CCc1ccccc1)NC(=O)CCc1ccccc1)C(=O)N[C@@H](CCCNC(=N)N)C(=O)C(=O)NC1CC1` [(S)—N-cyclopropyl-6-guanidino-3-((2S,3R)-3-hydroxy-2-((S)-4-phenyl-2-(3-phenylpropanamido)butanamido)butanamido)-2-oxohexanamide], the Ki was no more than 0.1 µM.

In the case of `C[C@@H](O)[C@H](NC(=O)[C@H](CCc1ccccc1)NC(=O)CCc1ccccc1)C(=O)NC(CCCNC(=N)N)C(=O)C(=O)NCc1cccnc1` (stereo partly drawn) [6-guanidino-3-((2S,3R)-3-hydroxy-2-((S)-4-phenyl-2-(3-phenylpropanamido)butanamido)butanamido)-2-oxo-N-(pyridin-3-ylmethyl)hexanamide], the Ki is no more than 0.1 µM.

With `CC(C)(C)NC(=O)C(=O)[C@H](CCCNC(=N)N)NC(=O)C1COCCN1C(=O)[C@H](Cc1cscn1)NC(=O)OCc1ccccc1` (stereo partly drawn), the Ki is no more than 0.1 µM.

With `CC(C)(C)NC(=O)C(=O)C(CCCNC(=N)N)NC(=O)C1(NC(=O)[C@H](Cc2cscn2)NC(=O)OCc2ccccc2)CCCC1` (stereo partly drawn), the Ki was no more than 0.1 µM.
